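48-hour exposure; five concentrations; linearly interpolated endpoints. At the GI50, growth is halved. TGI denotes the concentration required for complete inhibition of growth.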
What was measured:
Assay in all cases: growth of human tumour cells (NCI), 48 h
[1] = test system: HOP-62 NSCLC
[2] = test system: T-47D breast
[3] = test system: HCT-15 colon
[4] = test system: OVCAR-4 ovarian
[5] = test system: K-562 leukemia
[6] = test system: TK-10 renal
[7] = test system: HCC-2998 colon
[8] = test system: SNB-75 CNS
[9] = test system: OVCAR-8 ovarian
[10] = test system: HOP-92 NSCLC
[11] = test system: NCI/ADR-RES ovarian
[12] = test system: HCT-116 colon
[13] = test system: MDA-MB-435
[14] = test system: A498 renal
[15] = test system: BT-549 breast
[16] = test system: U251 CNS
[17] = test system: DU-145 prostate
[18] = test system: SK-OV-3 ovarian
[19] = test system: MDA-MB-231 breast
[20] = test system: NCI-H226 lung
[21] = test system: CAKI-1 renal
[22] = test system: 786-0 renal
[23] = test system: OVCAR-5 ovarian
[24] = test system: HS 578T breast
[25] = test system: SNB-19 CNS
[26] = test system: SK-MEL-2 melanoma
[27] = test system: EKVX NSCLC
[28] = test system: UO-31 renal
[29] = test system: ACHN renal
[30] = test system: NCI-H522 lung
[31] = test system: RPMI-8226 leukemia
[32] = test system: MCF7 breast
[33] = test system: HT29 colon
[34] = test system: LOX IMVI melanoma
[35] = test system: NCI-H23 lung
[36] = test system: SK-MEL-5 melanoma
[37] = test system: SF-539 CNS
[38] = test system: OVCAR-3 ovarian
[39] = test system: CCRF-CEM leukemia
[40] = test system: SK-MEL-28 melanoma
[41] = test system: SR leukemia
[42] = test system: PC-3 prostate
[43] = test system: RXF 393 renal
[44] = test system: SN12C renal
[45] = test system: A549 NSCLC
[46] = test system: UACC-62 melanoma
[47] = test system: M14 melanoma
[48] = test system: KM12 colon
[49] = test system: UACC-257 melanoma
[50] = test system: SF-268 CNS
[51] = test system: NCI-H460 lung
[52] = test system: HL-60(TB) leukemia
[53] = test system: IGROV1 ovarian
[54] = test system: SF-295 CNS
[55] = test system: SW-620 colon
[56] = test system: MALME-3M melanoma

**Q.** What does the source list for O=C(Nc1cccc(Cl)c1)Nc1cc2ncncc2cc1OCc1cccc(F)c1?
**A.** GI50 [1]: 2.1 µM; TGI [1]: 5.6 µM; GI50 [2]: 1.75 µM; TGI [2]: 4.37 µM; GI50 [3]: 2.72 µM; TGI [3]: > 100 µM; GI50 [4]: 2.56 µM; TGI [4]: 7.35 µM; GI50 [5]: 2.52 µM; TGI [5]: > 100 µM; GI50 [6]: 2.63 µM; TGI [6]: 7.98 µM; GI50 [7]: 3.9 µM; TGI [7]: > 100 µM; GI50 [8]: 1.81 µM; TGI [8]: 3.98 µM; GI50 [9]: 2.76 µM; TGI [9]: 7.98 µM; GI50 [10]: 1.88 µM; TGI [10]: 6.88 µM; GI50 [11]: 2.97 µM; TGI [11]: 7.71 µM; GI50 [12]: 2.61 µM; TGI [12]: > 100 µM; GI50 [13]: 1.48 µM; TGI [13]: 4.34 µM; GI50 [14]: 1.75 µM; TGI [14]: 5.96 µM; GI50 [15]: 2.34 µM; TGI [15]: 7.41 µM; GI50 [16]: 3.28 µM; TGI [16]: > 100 µM; GI50 [17]: 3.38 µM; TGI [17]: > 100 µM; GI50 [18]: 2.45 µM; TGI [18]: 6.13 µM; GI50 [19]: 2.54 µM; TGI [19]: 7.8 µM; GI50 [20]: 2.91 µM; TGI [20]: 9.19 µM; GI50 [21]: 3.03 µM; TGI [21]: > 100 µM; GI50 [22]: 3 µM; TGI [22]: > 100 µM; GI50 [23]: 2.72 µM; TGI [23]: > 100 µM; GI50 [24]: 2.62 µM; TGI [24]: 7.02 µM; GI50 [25]: 2.91 µM; TGI [25]: 74.2 µM

**Q.** Which TGI [26] does the source give for CCOc1ccc(NC(=O)/C(=N\N)C(C(=O)OC)c2nc3ccc(Cl)cc3[nH]c2=O)cc1 (stereo not drawn) here?
**A.** > 100 µM

**Q.** And the TGI [27]?
**A.** > 100 µM

**Q.** And the TGI [1]?
**A.** > 100 µM

**Q.** And the TGI [2]?
**A.** > 100 µM

**Q.** And the TGI [3]?
**A.** > 100 µM

**Q.** And the TGI [28]?
**A.** > 100 µM

**Q.** What about the TGI [29] of the same compound?
**A.** > 100 µM

**Q.** And the TGI [4]?
**A.** > 100 µM

**Q.** What about the TGI [30] of the same compound?
**A.** > 100 µM

**Q.** What about the TGI [6] of the same compound?
**A.** > 100 µM

**Q.** What about the TGI [31] of the same compound?
**A.** > 100 µM

**Q.** What about the TGI [32] of the same compound?
**A.** > 100 µM

**Q.** What about the TGI [7] of the same compound?
**A.** > 100 µM

**Q.** What about the TGI [8] of the same compound?
**A.** > 100 µM

**Q.** What about the TGI [33] of the same compound?
**A.** > 100 µM

**Q.** And the TGI [34]?
**A.** > 100 µM

**Q.** And the TGI [35]?
**A.** > 100 µM

**Q.** What about the TGI [9] of the same compound?
**A.** > 100 µM

**Q.** And the TGI [36]?
**A.** > 100 µM

**Q.** And the TGI [37]?
**A.** > 100 µM

**Q.** And the TGI [38]?
**A.** > 100 µM

**Q.** What about the TGI [39] of the same compound?
**A.** > 100 µM

**Q.** And the TGI [40]?
**A.** > 100 µM

**Q.** What about the TGI [10] of the same compound?
**A.** > 100 µM

**Q.** And the TGI [11]?
**A.** > 100 µM

**Q.** What about the TGI [12] of the same compound?
**A.** > 100 µM

**Q.** And the TGI [41]?
**A.** > 100 µM

**Q.** And the TGI [42]?
**A.** > 100 µM

**Q.** What about the TGI [43] of the same compound?
**A.** > 100 µM

**Q.** And the TGI [44]?
**A.** > 100 µM

**Q.** And the TGI [45]?
**A.** > 100 µM

**Q.** And the TGI [13]?
**A.** > 100 µM

**Q.** And the TGI [14]?
**A.** > 100 µM

**Q.** And the TGI [46]?
**A.** > 100 µM

**Q.** And the TGI [47]?
**A.** > 100 µM

**Q.** And the TGI [15]?
**A.** > 100 µM

**Q.** And the TGI [16]?
**A.** > 100 µM

**Q.** And the TGI [48]?
**A.** > 100 µM

**Q.** What about the TGI [18] of the same compound?
**A.** > 100 µM

**Q.** And the TGI [19]?
**A.** > 100 µM

**Q.** What about the TGI [20] of the same compound?
**A.** > 100 µM

**Q.** And the TGI [21]?
**A.** > 100 µM

**Q.** And the TGI [49]?
**A.** > 100 µM

**Q.** What about the TGI [50] of the same compound?
**A.** > 100 µM

**Q.** And the TGI [51]?
**A.** > 100 µM

**Q.** And the TGI [22]?
**A.** > 100 µM

**Q.** And the TGI [23]?
**A.** > 100 µM

**Q.** What about the TGI [52] of the same compound?
**A.** > 100 µM

**Q.** What about the TGI [53] of the same compound?
**A.** > 100 µM

**Q.** What about the TGI [54] of the same compound?
**A.** > 100 µM

**Q.** And the TGI [55]?
**A.** > 100 µM

**Q.** And the TGI [24]?
**A.** > 100 µM

**Q.** And the TGI [56]?
**A.** > 100 µM

Source: PubChem BioAssay (NCI)
